Source: patent publication US4383113A, “Agricultural sulfonamides” (E. I. Du Pont de Nemours and Company, priority 1981, dated 1983)

Experiments:
Design in all cases: key: 0 = no effect, 10 = maximum effect; letter = response symbol
morningglory [1] = test: Test A pre-emergence; format: in vivo, Ipomoea spp.
From the text: (§1) The activity of these compounds was discovered in a number of greenhouse and field tests. The ratings are based on a numerical scale extending from 0=no effect, to 10=maximum effect. The accompanying descriptive symbols have the following meanings:
(§2) Seeds of crabgrass (Digitaria spp.), barnyardgrass (Echinochloa crusgalli), wild oats (Avena fatua), cassia (Cassia tora), morningglory (Ipomoea spp.), cocklebur (Xanthium spp.), sorghum, corn, soybean, rice, wheat and nutsedge tubers (Cyperus rotundus) were planted in a growth medium and treated preemergence with a nonphytotoxic solvent solution of the compounds of Table XII. Other batches of seeds and tubers for all of the foregoing weed and crop plants were planted at the same time as controls. The control plantings were untreated; i.e., neither any compound nor any solvent was applied. At the same time, cotton having five leaves (including cotyledonary ones), bush beans with the third trifoliate leaf expanding, crabgrass with two leaves, barnyardgrass with two leaves, wild oats with two leaves, cassia with three leaves (including cotyledonary ones), morningglory with four leaves (including the cotyledonary ones), cocklebur with four leaves (including the cotyledonary ones), sorghum with four leaves, corn with four leaves, soybean with two cotyledonary leaves, rice with three leaves, wheat with one leaf, and nutsedge with three-five leaves were sprayed with a nonphytotoxic solvent solution of the compounds of Table XII. Other groups of all the same weed and crop plants were sprayed with the same nonphytotoxic solvent so as to provide control plants. Preemergence and postemergence treated plants and controls were maintained in a greenhouse for sixteen days, then all treated plants were compared with their respective controls and rated visually for response to treatment.

cocklebur [2] = test: Test A pre-emergence; format: in vivo, Xanthium spp.
From the text: as §1, §2

cassia [3] = test: Test A pre-emergence; format: in vivo, Cassia tora
From the text: as §1, §2

crabgrass [4] = test: Test A pre-emergence; format: in vivo, Digitaria spp.
From the text: as §1, §2

barnyardgrass [5] = test: Test A pre-emergence; format: in vivo, Echinochloa crusgalli
From the text: as §1, §2

wild oats [6] = test: Test A pre-emergence; format: in vivo, Avena fatua; conditions: 0.4 kg/ha
From the text: as §1, §2

sorghum [7] = test: Test A pre-emergence; format: in vivo
From the text: as §1, §2

soybean [8] = test: Test A pre-emergence; format: in vivo
From the text: as §1, §2

wheat [9] = test: Test A pre-emergence; format: in vivo
From the text: as §1, §2

morningglory [10] = test: Test A post-emergence; format: in vivo, Ipomoea spp.; conditions: 0.4 kg/ha
From the text: as §1, §2

nutsedge = test: Test A post-emergence; format: in vivo, Cyperus rotundus; conditions: 0.4 kg/ha
From the text: as §1, §2

soybean [11] = test: Test A post-emergence; format: in vivo; conditions: 0.4 kg/ha
From the text: as §1, §2

cocklebur [12] = test: Test A post-emergence; format: in vivo, Xanthium spp.; conditions: 0.4 kg/ha
From the text: as §1, §2

cassia [13] = test: Test A post-emergence; format: in vivo, Cassia tora; conditions: 0.4 kg/ha
From the text: as §1, §2

corn = test: Test A post-emergence; format: in vivo; conditions: 0.4 kg/ha
From the text: as §1, §2

sorghum [14] = test: Test A post-emergence; format: in vivo; conditions: 0.4 kg/ha
From the text: as §1, §2

wheat [15] = test: Test A post-emergence; format: in vivo; conditions: 0.4 kg/ha
From the text: as §1, §2

crabgrass [16] = test: Test A post-emergence; format: in vivo, Digitaria spp.; conditions: 0.4 kg/ha
From the text: as §1, §2

barnyardgrass [17] = test: Test A post-emergence; format: in vivo, Echinochloa crusgalli; conditions: 0.4 kg/ha
From the text: as §1, §2

wild oats [18] = test: Test A post-emergence; format: in vivo, Avena fatua; conditions: 0.4 kg/ha
From the text: as §1, §2

bush bean = test: Test A post-emergence; format: in vivo, bush beans; conditions: 0.4 kg/ha

Row | Structure (SMILES) | response rating (morningglory [1]; 0.4 kg/ha) | response rating (cocklebur [2]; 0.4 kg/ha) | response rating (cassia [3]; 0.4 kg/ha) | response rating (crabgrass [4]; 0.4 kg/ha) | response rating (barnyardgrass [5]; 0.4 kg/ha) | response rating (wild oats [6]) | response rating (sorghum [7]; 0.4 kg/ha) | response rating (soybean [8]; 0.4 kg/ha) | response rating (wheat [9]; 0.4 kg/ha) | response rating (morningglory [10]) | other results
1 | CCC(C)OC(=O)c1ccccc1S(=O)(=O)NC(=O)Nc1nc(OC)cc(OC)n1 (centres unmarked) [drawing 490] | 9G | 9G | 8G | 0 | 9H | 8G | 9G | 8H | 2G |  | 
2 | CCCCCCCCCCCCNC(=O)c1ccccc1S(=O)(=O)NC(=O)Nc1nc(C)nc(OC)n1 [drawing 467] |  |  |  |  |  |  |  |  |  | 9C | response rating (nutsedge): 9G; response rating (soybean [11]): 9C
3 | COc1cc(OC)nc(NC(=O)NS(=O)(=O)c2ccccc2C(=O)OC2CCCCC2)n1 [drawing 431] |  |  |  |  |  |  |  |  |  | 9C | response rating (cocklebur [12]): 9C; response rating (cassia [13]): 1C; response rating (corn): 7H; response rating (sorghum [14]): 8H; response rating (wheat [15]): 1C
4 | COC(=O)c1cc(Cl)ccc1S(=O)(=O)NC(=O)Nc1nc(OC)nc(OC)n1 [drawing 435] |  |  |  |  |  |  |  |  |  | 10C | response rating (cocklebur [12]): 10C; response rating (nutsedge): 10C; response rating (crabgrass [16]): 1C; response rating (barnyardgrass [17]): 3G; response rating (wild oats [18]): 0; response rating (corn): 9H; response rating (sorghum [14]): 8H; response rating (wheat [15]): 0
5 | COC(=O)c1ccccc1S(=O)(=O)NC(=O)Nc1nc(OC)nc(OCC(F)(F)F)n1 [drawing 540] | 9G | 9G | 9G | 2G |  |  |  | 9H | 6G |  | 
6 | COc1cc(OC)nc(NC(=O)NS(=O)(=O)c2ccccc2C(=O)OC(C)C)n1 [drawing 503] | 9G |  |  | 8G |  | 7G |  |  | 7G |  | 
7 | COc1nc(C)nc(NC(=O)NS(=O)(=O)c2ccccc2C(=O)OC(C)CCl)n1 (centres unmarked) [drawing 459] |  |  |  |  |  |  |  |  |  | 10C | response rating (bush bean): 9C; response rating (cocklebur [12]): 9C; response rating (wild oats [18]): 3G; response rating (wheat [15]): 2G
8 | COc1cc(OC)nc(NC(=O)NS(=O)(=O)c2ccccc2C(=O)OCCCl)n1 [drawing 487] | 9G | 9G |  |  | 9H | 9G | 9H | 9H | 9G |  | 
9 | C=CCOC(=O)c1ccccc1S(=O)(=O)NC(=O)Nc1nc(C)nc(OC)n1 [drawing 518] | 9G | 9G | 9G | 9H | 9H |  | 10H | 9H | 9H |  | 
10 | COc1nc(C)nc(NC(=O)NS(=O)(=O)c2ccccc2C(=O)OC(C)Cc2ccccc2)n1 (centres unmarked) [drawing 457] |  |  |  |  |  |  |  |  |  | 10C | response rating (bush bean): 9C; response rating (cocklebur [12]): 9C; response rating (cassia [13]): 10C; response rating (nutsedge): 7G; response rating (crabgrass [16]): 9C; response rating (barnyardgrass [17]): 9C; response rating (corn): 9C
11 | CCC(C)OC(=O)c1ccccc1S(=O)(=O)NC(=O)Nc1nc(C)cc(OC)n1 (centres unmarked) [drawing 491] | 9G |  | 9G | 6G | 9H |  | 9H | 9H | 9G |  | 
12 | COC(=O)c1cc(Cl)ccc1S(=O)(=O)NC(=O)Nc1nc(C)cc(OC)n1 [drawing 501] | 9G | 9H |  |  | 9H | 9G | 9H | 9H | 8H |  | 
13 | CCOC(=O)c1ccccc1S(=O)(=O)NC(=O)Nc1nc(OC)cc(OC)n1 [drawing 509] |  | 9G | 9G |  | 9H | 9G | 9H | 9H | 9H |  | 
14 | COC(=O)c1ccccc1S(=O)(=O)NC(=O)Nc1nc(C)nc(OC)n1 [drawing 482] | 9H | 9G | 9G |  | 9H | 9H | 9H | 9H | 9H |  | 
15 | CCC(C)OC(=O)c1ccccc1S(=O)(=O)NC(=O)Nc1nc(C)cc(OC)n1 (centres unmarked) [drawing 424] |  |  |  |  |  |  |  |  |  | 10C | response rating (cocklebur [12]): 9C; response rating (nutsedge): 8G; response rating (crabgrass [16]): 0; response rating (wild oats [18]): 8G
16 | COC(=O)c1cc(Cl)ccc1S(=O)(=O)NC(=O)Nc1nc(OC)nc(OC)n1 [drawing 502] | 9G | 9G |  | 1C |  | 8G | 9H | 9H | 1C |  | 
17 | COC(=O)c1cc([N+](=O)[O-])ccc1S(=O)(=O)NC(=O)Nc1nc(C)cc(OC)n1 [drawing 462] |  |  |  |  |  |  |  |  |  | 9C | response rating (bush bean): 9C; response rating (cocklebur [12]): 9C; response rating (cassia [13]): 9C; response rating (nutsedge): 9G
18 | COc1cc(C)nc(NC(=O)NS(=O)(=O)c2ccccc2C(=O)OC(C)C)n1 [drawing 504] | 9H |  |  | 8G |  | 8G |  |  | 9G |  | 
19 | COC(=O)c1ccccc1S(=O)(=O)NC(=O)Nc1nc(C)cc(C)n1 [drawing 479] | 9G | 9G | 8G | 9G | 9H |  |  | 9H | 9H |  | response rating (morningglory [1]; 2 kg/ha): 9G; response rating (cocklebur [2]; 2 kg/ha): 9G; response rating (cassia [3]; 2 kg/ha): 9G; response rating (crabgrass [4]; 2 kg/ha): 9G; response rating (barnyardgrass [5]; 2 kg/ha): 9H; response rating (soybean [8]; 2 kg/ha): 9H; response rating (wheat [9]; 2 kg/ha): 9H
20 | COc1cc(C)nc(NC(=O)NS(=O)(=O)c2ccccc2C(=O)CCC(C)C)n1 [drawing 449] |  |  |  |  |  |  |  |  |  | 10C | response rating (bush bean): 10D; response rating (barnyardgrass [17]): 9C; response rating (corn): 9H
21 | CCOC(=O)c1ccccc1S(=O)(=O)NC(=O)Nc1nc(OC)cc(OC)n1 [drawing 508] |  |  |  |  |  |  |  |  |  |  | response rating (cocklebur [2]; 2 kg/ha): 9G; response rating (cassia [3]; 2 kg/ha): 9G; response rating (crabgrass [4]; 2 kg/ha): 9H; response rating (barnyardgrass [5]; 2 kg/ha): 9H; response rating (sorghum [7]; 2 kg/ha): 10H; response rating (soybean [8]; 2 kg/ha): 9H; response rating (wheat [9]; 2 kg/ha): 9H
22 | COc1nc(NC(=O)NS(=O)(=O)c2ccccc2C(=O)OC(C)C)nc(OC)n1 [drawing 505] |  |  |  | 7G |  | 8G |  |  | 7G |  | 
23 | COc1cc(C)nc(NC(=O)NS(=O)(=O)c2ccccc2C(=O)NCc2ccccc2)n1 [drawing 531] | 9G | 8G | 9G |  | 9H | 3C |  | 9H | 9H |  | 
24 | CCCCCCCCCCOC(=O)c1ccccc1S(=O)(=O)NC(=O)Nc1nc(C)cc(OC)n1 [drawing 428] |  |  |  |  |  |  |  |  |  |  | response rating (cassia [13]): 5G; response rating (nutsedge): 7G; response rating (crabgrass [16]): 0; response rating (wild oats [18]): 5G; response rating (wheat [15]): 3C
